# Reference: publication PMC10287695, “Non-covalent inhibitors of thioredoxin glutathione reductase with schistosomicidal activity in vivo” (Nature Communications, 2023)
# Read-outs that look alike come from different tables or passages of the source. Marks after values point to notes of the source that are not given here.
# Columns and labels:
# Human TrxR1 = biological target: T1, Human TrxR1 (Homo sapiens, UniProt Q16881); assay: Human TrxR1 enzyme inhibition (DTNB reduction); format: biochemical
# T1 construct: made in house
# T1 sequence (Q16881 1-499 isoform Q16881-5): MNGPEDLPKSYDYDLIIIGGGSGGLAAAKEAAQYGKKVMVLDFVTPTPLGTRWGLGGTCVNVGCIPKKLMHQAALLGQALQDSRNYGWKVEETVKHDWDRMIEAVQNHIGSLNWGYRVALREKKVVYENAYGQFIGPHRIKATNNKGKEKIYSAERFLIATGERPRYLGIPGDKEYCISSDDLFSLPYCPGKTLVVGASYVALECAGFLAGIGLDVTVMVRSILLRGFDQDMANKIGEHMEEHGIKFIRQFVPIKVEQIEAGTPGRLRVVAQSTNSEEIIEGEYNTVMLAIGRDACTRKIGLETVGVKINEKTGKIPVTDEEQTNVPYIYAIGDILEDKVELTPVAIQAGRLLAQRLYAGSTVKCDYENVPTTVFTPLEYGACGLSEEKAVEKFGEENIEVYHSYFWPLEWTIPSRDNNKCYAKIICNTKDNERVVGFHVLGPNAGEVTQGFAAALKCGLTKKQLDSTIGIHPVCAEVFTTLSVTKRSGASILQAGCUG
# Procedure: Recombinant TGR, human TrxR1, B. malayi (Bm)TrxR and human GR proteins were expressed and purified as described[20],[69],[79]. The codon optimized sequence for P. falciparum (PfTrxR, https://www.ncbi.nlm.nih.gov/protein/CAA60574.1/) with an N-terminal 6-His tag was synthesized and inserted into pET15b (GenScript) and expressed in BL21 (DE3) cells and purified as described for human GR[20]. TGR and TrxR enzyme inhibition assays were performed in triplicate at 25 °C as described[20] in 0.1 M potassium phosphate (pH 7.4), 10 mM EDTA, 100 µM NADPH and 0.01% Tween-20. […] The reaction was started with addition of an equal volume of DTNB (6 mM) and NADPH (100 µM) and the increase in A412 during the first 3 min was recorded. […] The reaction was preincubated for 15 min. Activity was initiated with the addition of 1 mM GSSG and 100 μM NADPH and initial rates of NADPH oxidation were monitored at 340 nm. The reactions were done in triplicate. The IC50 was calculated in GraphPad Prism.
# [1] = system: S. mansoni newly transformed schistosomula (NTS); assay: Schistosomicidal activity ex vivo, NTS (Cell Titer Glo); format: cell-based; details: for LD50 ex vivo S. mansoni NTS: 24 h exposure, Cell TiterGlo; for % viability: S. mansoni NTS
# Procedure: Oncomelania hupensis subsp. hupensis, Chinese strain, infected with S. japonicum, Chinese strain, and Biomphalaria glabrata, strain NMRI, infected with S. mansoni, strain NMRI, were provided by the NIAID Schistosomiasis Resource Center for distribution through BEI Resources, NIAID, NIH. After infections were patent, snails were exposed to bright light for 1 hr to obtain cercariae. Cercariae were mechanically transformed to schistosomula. Briefly, cercariae were placed on ice for 30 min and then centrifuged at 350 × g for 10 mins. The supernatant was decanted and 2 ml of serum-free M199 medium was added to cercarial pellets and vortexed for 1 min until cercarial tails were detached. NTS were purified by layering on 4 °C Percoll gradient suspension containing Eagle’s minimum essential medium, penicillin-streptomycin (10,000 U per ml penicillin/10,000 U per ml streptomycin), and 1 M HEPES in 0.85% NaCl with cercariae suspension and centrifuged at 500 × g for 15 min. Cercarial pellets were resuspended and washed thrice in serum-free M199 medium and collected at 100 × g for 5 min. NTS (240) were transferred to U-bottom 96 well assay plates containing 200 µl of M199 medium supplemented with 5.5 mM D-glucose, penicillin-streptomycin and 5% heat inactivated fetal bovine serum and incubated at 37 °C in a 5% CO2 incubator overnight.
# DMSO formulated compounds were diluted with phenol red free M199 medium or RPMI medium for NTS or juvenile and adult worms, respectively, at <1% DMSO final concentrations. NTS, juvenile and adult worms from overnight cultures were tested against compounds in triplicate. Controls were treated with DMSO alone or 5 µM AF as a positive control in appropriate medium. Worm viability was assessed at 24 or 72 h by measuring ATP content of worms using Cell Titer Glo Assay (Promega) as described. Schistosome viabilities in the presence of the compounds were assessed using this formula: % Viability = Averages of Test / Averages of DMSO Control x 100.
# Vero cells = assay: Cytotoxicity in mammalian cells (Cell Titer Glo); format: cell-based; details: for LD50 ex vivo VERO: African green monkey, 24 h; for % viability: Vero cells
# Procedure: Following overnight incubation, formulated DMSO-compound stock solutions were diluted with DMEM at <1% DMSO final concentrations. […] Vero cells treated similarly with different concentrations of PZQ, MZM and AF (Cayman Chemicals) were used as positive controls.
# S. mansoni TGR = biological target: T2, S. mansoni TGR (Schistosoma mansoni, UniProt Q962Y6); assay: S. mansoni TGR enzyme inhibition (DTNB reduction); format: biochemical
# T2 construct: made in house
# T2 sequence (Q962Y6 1-598): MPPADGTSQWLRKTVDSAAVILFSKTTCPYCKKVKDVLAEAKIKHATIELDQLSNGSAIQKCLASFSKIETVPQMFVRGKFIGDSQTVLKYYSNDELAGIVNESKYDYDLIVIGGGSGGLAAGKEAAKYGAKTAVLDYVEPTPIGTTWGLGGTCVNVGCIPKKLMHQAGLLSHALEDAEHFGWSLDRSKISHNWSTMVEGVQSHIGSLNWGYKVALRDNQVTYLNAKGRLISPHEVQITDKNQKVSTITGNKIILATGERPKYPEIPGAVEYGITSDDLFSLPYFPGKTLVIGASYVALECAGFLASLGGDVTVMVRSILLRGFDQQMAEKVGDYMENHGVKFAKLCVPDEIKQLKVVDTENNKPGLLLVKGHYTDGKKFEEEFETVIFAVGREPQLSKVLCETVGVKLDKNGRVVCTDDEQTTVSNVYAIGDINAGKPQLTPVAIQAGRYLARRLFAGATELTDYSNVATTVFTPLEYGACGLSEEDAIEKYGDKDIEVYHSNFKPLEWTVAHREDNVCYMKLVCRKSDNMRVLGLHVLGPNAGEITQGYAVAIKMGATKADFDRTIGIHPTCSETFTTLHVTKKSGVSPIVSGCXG
# [2] = 15 min preincubation (enzyme + 100 µM NADPH + compound), read-out: Human TrxR1 IC50
# [3] = hsTrxR, 15 minutes pre-incubation, compound 15 µM
# [4] = hsTrxR, 15 minutes pre-incubation, compound 30 µM
# [5] = hsTrxR, 15 minutes pre-incubation, compound 66.7 µM, read-out: % inhibition
# [6] = 15 min preincubation (enzyme + 100 µM NADPH + compound)
smiles,measurement,setting,value
Cc1oc(C2CCCCC2)nc1C(=O)N[C@@H]1C[C@@H]2C[C@H]([C@H]1C)C2(C)C [Compound 7],IC50,Human TrxR1; [2],22.3 ± 2.03 µM
same,inhibition at 15 µM,Human TrxR1; [3],38.1%
same,inhibition at 30 µM,Human TrxR1; [4],63.3%
same,inhibition at 66.7 µM,Human TrxR1; [5],92.7%
same,LD50 ex vivo S. mansoni NTS,[1],4.7 ± 0.31 µM
same,viability at 1 µM,[1]; Schistosoma mansoni,85.7%
same,viability at 1.5 µM,[1]; Schistosoma mansoni,72.1%
same,viability at 2.5 µM,[1]; Schistosoma mansoni,47.6%
same,viability at 5 µM,[1]; Schistosoma mansoni,40.2%
same,LD50 ex vivo VERO,Vero cells,>50^a µM
same,IC50,S. mansoni TGR; [6],14.6 ± 1.22 µM
same,inhibition at 15 µM,"S. mansoni TGR; TGR, 15 minutes pre-incubation, compound 15 µM, read-out: % inhibition",75.5%
same,inhibition at 30 µM,"S. mansoni TGR; TGR, 15 minutes pre-incubation, compound 30 µM, read-out: % inhibition",88.1%
same,inhibition at 66.7 µM,"S. mansoni TGR; TGR, 15 minutes pre-incubation, compound 66.7 µM, read-out: % inhibition",95.1%
Cc1oc(C2CCCCC2)nc1CN[C@@H]1C[C@@H]2C[C@H]([C@H]1C)C2(C)C [Compound 4],IC50,Human TrxR1; [2],> 66.7 µM
same,IC50,"Human TrxR1; 6 h preincubation, read-out: Human TrxR1 IC50 (µM) or inhibition (%) at 66.7 µM: IC50",19 ± 5.72 µM
same,inhibition at 15 µM,Human TrxR1; [3],14.3%
same,inhibition at 30 µM,Human TrxR1; [4],26.9%
same,inhibition at 66.7 µM,Human TrxR1; [5],40.2%
same,LD50 ex vivo S. mansoni NTS,[1],0.85 ± 0.11 µM
same,LD50 ex vivo VERO,Vero cells,>50^a µM
same,IC50,S. mansoni TGR; [6],> 66.7 µM
same,inhibition at 66.7 µM,"S. mansoni TGR; 6 h preincubation (enzyme + 100 µM NADPH + compound), read-out: S. mansoni TGR inhibition (%) at 66.7 µM",68.6%
Cc1oc(-c2ccccc2)nc1CN[C@@H]1C[C@@H]2C[C@H]([C@H]1C)C2(C)C [C3],% inhibition,Human TrxR1; [3],11.8305%
same,% inhibition,Human TrxR1; [4],16.5848%
same,% inhibition,"Human TrxR1; hsTrxR, 15 minutes pre-incubation, compound 66.7 µM",23.0303%
same,% viability,[1]; Conc. 5 µM,6.85%
same,% viability,[1]; Conc. 15 µM,0.6968%
same,% viability,[1]; Conc. 30 µM,0.5581%
same,% viability,[1]; Conc. 50 µM,0.6054%
same,% viability,Vero cells; Conc. 5 µM,99.3244%
same,% viability,Vero cells; Conc. 10 µM,93.7147%
same,% viability,Vero cells; Conc. 25 µM,77.3582%
same,% viability,Vero cells; Conc. 35 µM,52.4878%
same,% viability,Vero cells; Conc. 50 µM,28.6792%
same,% inhibition,"S. mansoni TGR; TGR, 15 minutes pre-incubation, compound 15 µM",3.671%
same,% inhibition,"S. mansoni TGR; TGR, 15 minutes pre-incubation, compound 30 µM",7.41%
same,% inhibition,"S. mansoni TGR; TGR, 15 minutes pre-incubation, compound 66.7 µM",17.804%
same,% inhibition,"S. mansoni TGR; TGR, 6 hours pre-incubation, compound 15 µM",23.6178%
same,% inhibition,"S. mansoni TGR; TGR, 6 hours pre-incubation, compound 30 µM",33.5098%
same,% inhibition,"S. mansoni TGR; TGR, 6 hours pre-incubation, compound 66.7 µM",42.7576%
C[C@@H]1[C@H]2C[C@@H](C[C@H]1NCc1nc3ccccc3n1C)C2(C)C [Compound 12],inhibition at 66.7 µM,"Human TrxR1; 66.7 µM, 6 h preincubation, read-out: Human TrxR1 IC50 (µM) or inhibition (%) at 66.7 µM: inhibition",28.6%
same,IC50,Human TrxR1; [2],> 66.7 µM
same,LD50 ex vivo S. mansoni NTS,[1],>50^a µM
same,S. mansoni TGR IC50,S. mansoni TGR; [6],n.i.^e
same,S. mansoni TGR inhibition (%) at 66.7 µM,S. mansoni TGR; 6 h preincubation (enzyme + 100 µM NADPH + compound),n.i.^e
